Measurements as given in ChEMBL document CHEMBL1153291, “Synthesis and structure-activity relationships of novel benzofuran farnesyltransferase inhibitors” (Bioorg Med Chem Lett, 2009).
pIC50: −log10 of the molar value. One block for each molecule: values may come before it.

Columns and labels:
[1] = biological target: Protein farnesyltransferase (Homo sapiens, UniProt P49354+P49356); assay: Inhibition of human FTase; format: protein-complex assay
QG-56 [2] = assay: Antiproliferative activity against human QG56 cells; format: functional, cell-based
[3] = AUC (0 to 24 hrs) in mouse at 25 mg/kg, iv; format: ADME, organism-based; parameters: time < 24 hr, dose 25 mg/kg, route intravenous; settings: plasma
[4] = Half life in mouse at 25 mg/kg, iv; format: ADME, organism-based; parameters: dose 25 mg/kg, route intravenous; settings: in vivo
[5] = Cmax in mouse at 25 mg/kg, po; format: ADME, organism-based; parameters: dose 25 mg/kg, route oral; settings: in vivo
[6] = AUC (0 to 24 hrs) in mouse at 25 mg/kg, po; format: ADME, organism-based; parameters: time < 24 hr, dose 25 mg/kg, route oral; settings: plasma
[7] = Apparent oral clearance in mouse at 25 mg/kg, po; format: ADME, organism-based; parameters: dose 25 mg/kg, route oral; settings: in vivo
[8] = Half life in mouse at 25 mg/kg, po; format: ADME, organism-based; parameters: dose 25 mg/kg, route oral; settings: in vivo
[9] = Oral bioavailability in mouse at 25 mg/kg; format: ADME, organism-based; settings: in vivo
[10] = AUC (0 to 24 hrs) in mouse at 100 mg/kg, po; format: ADME, organism-based; parameters: time < 24 hr, dose 100 mg/kg, route oral; settings: plasma
[11] = Apparent oral clearance in mouse at 100 mg/kg, po; format: ADME, organism-based; parameters: dose 100 mg/kg, route oral; settings: in vivo
[12] = Half life in mouse at 100 mg/kg, po; format: ADME, organism-based; parameters: dose 100 mg/kg, route oral; settings: in vivo
[13] = Oral bioavailability in mouse at 100 mg/kg; format: ADME, organism-based; settings: in vivo
QG-56 [14] = assay: Antitumor activity against human QG56 cells xenografted in mouse assessed as reduction of tumor volume at 200 mg/kg, po administered 5 times a week for 2 weeks; format: functional, organism-based; parameters: dose 200 mg/kg
QG-56 [15] = assay: Toxicity in mouse xenografted with human QG56 cells assessed as reduction of body weight loss at 200 mg/kg, po administered 5 times a week for 2 weeks; format: functional, organism-based; parameters: dose 200 mg/kg
[16] = Cmax in mouse at 100 mg/kg, po; format: ADME, organism-based; parameters: dose 100 mg/kg, route oral; settings: in vivo

Structure (SMILES): COc1cccc(-c2cc([N+](=O)[O-])cc3cc([C@](N)(c4ccc(C#N)cc4)c4cncn4C)oc23)c1
pIC50 [1]: 9.10 | pIC50 (QG-56 [2]): 8.96

Structure (SMILES): Cn1cncc1C(O)(c1ccc(C#N)cc1)c1cc2cc([N+](=O)[O-])cc(-c3cccc(C#N)c3)c2o1 (racemic)
pIC50 (QG-56 [2]): 7.64

Structure (SMILES): COc1cccc(-c2cc(CO)cc3cc(C(O)(c4ccc(C#N)cc4)c4cncn4C)oc23)c1 (racemic)
pIC50 [1]: 9.00 | pIC50 (QG-56 [2]): 7.77

Structure (SMILES): COC(=O)c1cc(-c2cccc(OC)c2)c2oc(C(O)(c3ccc(C#N)cc3)c3cncn3C)cc2c1 (racemic)
pIC50 [1]: 8.49 | pIC50 (QG-56 [2]): 7.44

Structure (SMILES): COc1ccc(C(O)(c2cc3cc([N+](=O)[O-])cc(-c4ccccc4)c3o2)c2cncn2C)cc1 (racemic)
pIC50 [1]: 6.60 | pIC50 (QG-56 [2]): 5.30

Structure (SMILES): COc1cccc(-c2cc([N+](=O)[O-])cc3cc(C(O)(c4ccc(C#N)cc4)c4cncn4C)oc23)c1 (racemic)
pIC50 [1]: 8.07 | pIC50 (QG-56 [2]): 7.41

Structure (SMILES): COc1cccc(-c2cc(C(N)=O)cc3cc(C(O)(c4ccc(C#N)cc4)c4cncn4C)oc23)c1 (racemic)
pIC50 [1]: 9.05 | pIC50 (QG-56 [2]): 8.09

Structure (SMILES): Cn1cncc1C(O)(c1ccc(C(=O)OC(C)(C)C)cc1)c1cc2cc([N+](=O)[O-])cc(-c3ccccc3)c2o1 (racemic)
pIC50 [1]: < 6.00 | pIC50 (QG-56 [2]): 5.20

Structure (SMILES): Cn1cncc1C(O)(c1ccc(C#N)cc1)c1cc2cc(C#N)cc(-c3ccccc3)c2o1 (racemic)
pIC50 [1]: 8.62 | pIC50 (QG-56 [2]): 7.84

Structure (SMILES): Cn1cncc1[C@@](N)(c1ccc(C#N)cc1)c1cc2cc(C#N)cc(-c3cccc(C#N)c3)c2o1
pIC50 [1]: 9.15 | pIC50 (QG-56 [2]): 8.70

Structure (SMILES): COc1cccc(-c2cc(C#N)cc3cc([C@](N)(c4ccc(C#N)cc4)c4cncn4C)oc23)c1
pIC50 [1]: 8.92 | pIC50 (QG-56 [2]): 8.82

Structure (SMILES): Cn1cncc1[C@@](N)(c1ccc(C#N)cc1)c1cc2cc(C#N)cc(-c3cccc(F)c3)c2o1
pIC50 [1]: 8.96 | pIC50 (QG-56 [2]): 8.70 | AUC(0-t) at 24 h [3]: 15400 ng·h/mL | half-life [4]: 1.2 h | Cmax [5]: 1570 ng/mL | AUC(0-t) at 24 h [6]: 10200 ng·h/mL | CL/F [7]: 40.8 mL/min/kg | half-life [8]: 2.4 h | bioavailability [9]: 66% | AUC(0-t) at 24 h [10]: 31300 ng·h/mL | CL/F [11]: 41 mL/min/kg | half-life [12]: 12.3 h | bioavailability [13]: 51% | Activity (QG-56 [14]): Non-toxic | Activity (QG-56 [15]): Not toxic | Cmax [16]: 5010 ng/mL

Structure (SMILES): Cn1cncc1C(O)(c1ccc(C#N)cc1)c1cc2cc([N+](=O)[O-])cc(-c3ccc(F)cc3)c2o1 (racemic)
pIC50 [1]: 8.14 | pIC50 (QG-56 [2]): 6.80

Structure (SMILES): Cn1cncc1C(O)(c1ccc(C(=O)O)cc1)c1cc2cc([N+](=O)[O-])cc(-c3ccccc3)c2o1 (racemic)
pIC50 [1]: 6.07 | pIC50 (QG-56 [2]): < 5.00

Structure (SMILES): Cn1cncc1C(O)(c1ccc(Cl)cc1)c1cc2cc(C(=O)NN3CCOCC3)cc(-c3ccccc3)c2o1 (racemic)
pIC50 (QG-56 [2]): 7.13

Structure (SMILES): Cn1cncc1C(O)(c1ccc(C#N)cc1)c1cc2cc([N+](=O)[O-])cc(-c3ccc(C#N)cc3)c2o1 (racemic)
pIC50 [1]: 8.47 | pIC50 (QG-56 [2]): 7.49

Structure (SMILES): COc1cccc(-c2cc(CN(C)C)cc3cc(C(O)(c4ccc(C#N)cc4)c4cncn4C)oc23)c1 (racemic)
pIC50 [1]: 7.96 | pIC50 (QG-56 [2]): 6.85

Structure (SMILES): COc1cccc(-c2cc(C(=O)NN3CCOCC3)cc3cc(C(O)(c4ccc(C#N)cc4)c4cncn4C)oc23)c1 (racemic)
pIC50 [1]: 8.59

Structure (SMILES): COc1ccc(-c2cc([N+](=O)[O-])cc3cc(C(O)(c4ccc(C#N)cc4)c4cncn4C)oc23)cc1 (racemic)
pIC50 [1]: 8.40 | pIC50 (QG-56 [2]): 7.44

Structure (SMILES): COc1cccc(-c2cc(C=O)cc3cc(C(O)(c4ccc(C#N)cc4)c4cncn4C)oc23)c1 (racemic)
pIC50 [1]: 8.70 | pIC50 (QG-56 [2]): 7.82

More lines, main results first:

pIC50 [1]: 6.77
Structure (SMILES): Cn1cncc1C(O)(c1ccc(Cl)cc1)c1cc2cc([N+](=O)[O-])cc(-c3ccccc3)c2o1 (racemic)
pIC50 (QG-56 [2]): 5.72

pIC50 [1]: 6.44
Structure (SMILES): Cn1cncc1C(O)(c1ccc(I)cc1)c1cc2cc([N+](=O)[O-])cc(-c3ccccc3)c2o1 (racemic)
pIC50 (QG-56 [2]): < 5.00

pIC50 [1]: 6.44
Structure (SMILES): Cn1cncc1C(O)(c1ccc(Br)cc1)c1cc2cc([N+](=O)[O-])cc(-c3ccccc3)c2o1 (racemic)
pIC50 (QG-56 [2]): 5.83

pIC50 [1]: 8.82
Structure (SMILES): Cn1cncc1[C@@](N)(c1ccc(C#N)cc1)c1cc2cc([N+](=O)[O-])cc(-c3ccccc3)c2o1
pIC50 (QG-56 [2]): 8.23

pIC50 [1]: 8.19
Structure (SMILES): Cn1cncc1C(O)(c1ccc(C#N)cc1)c1cc2cc([N+](=O)[O-])cc(-c3ccccc3)c2o1 (racemic)
pIC50 (QG-56 [2]): 5.83

pIC50 [1]: 8.48
Structure (SMILES): Cn1cncc1C(O)(c1ccc(C#N)cc1)c1cc2cc([N+](=O)[O-])cc(-c3ccccc3F)c2o1 (racemic)
pIC50 (QG-56 [2]): 7.05

pIC50 [1]: 7.96
Structure (SMILES): Cc1cccc(-c2cc([N+](=O)[O-])cc3cc(C(O)(c4ccc(C#N)cc4)c4cncn4C)oc23)c1 (racemic)
pIC50 (QG-56 [2]): 7.63

pIC50 [1]: 7.31
Structure (SMILES): Cn1cncc1[C@](N)(c1ccc(C#N)cc1)c1cc2cc([N+](=O)[O-])cc(-c3ccccc3)c2o1
pIC50 (QG-56 [2]): 6.69

pIC50 [1]: 7.52
Structure (SMILES): Cn1cncc1C(O)(c1ccc([N+](=O)[O-])cc1)c1cc2cc([N+](=O)[O-])cc(-c3ccccc3)c2o1 (racemic)
pIC50 (QG-56 [2]): 6.26

pIC50 [1]: 8.20
Structure (SMILES): Cn1cncc1C(O)(c1ccc(C#N)cc1)c1cc2cc([N+](=O)[O-])cc(-c3cccc(F)c3)c2o1 (racemic)
pIC50 (QG-56 [2]): 6.84
